According to patent US10562857B2 (AFASCI, Inc., priority 2015, dated 2020):
pIC50: −log10 of the molar value. “Also recorded” adds a separate entry of the source.

How the values were obtained:
[1] = target: T1, Cav3.2 channel (Homo sapiens, UniProt O95180); experiment: Whole-cell patch clamp of T-type Cav3.2 channel expressed in HEK293 cells; format: cell-based; settings: for pIC50: Table 1, tested at at least 4 concentrations, read-out: IC50; for inhibition at 1 µM: HEK293, Table 1 primary screening
T1 construct: expressed in transfected cells; host or cells: HEK-293, tetracycline inducible expression system (Invitrogen)

[2] = test system: SNI mice; experiment: Spared nerve injury (SNI) mice, Hargreaves thermal test; format: in vivo, mouse; settings: 30 mg/kg, 0.2 mL I.P.
Procedure: FIG. 1A. Examples of compounds that mitigate neuropathic pain induced by Spared Nerve Injury (SNI) in mice. The withdrawal latencies of the mice's left hindpaws (injured site) in response to thermal stimulation (Hargreaves test). Each SNI mouse received either EXAMPLE (EX)-11, -14, -38, -62, or 113, or gabapentin, as benchmark (each 30 mg/kg, 0.2 mL I.P.), or vehicle (0.2 mL I.P. 2% DMSO in 0.5% Hydroxyl Propyl Cellulose, HPC). […] 40 seconds were cut off in order to prevent tissue damage (n=8 per group).
(§1) T-channel specific inhibitors are not yet available for clinical treatment of neuropathic pain. The spared nerve injury (SNI) model, one of the reliable neuropathic pain models in mice and rats (Decosterd and Woolf, 2000), was used to assess the effects of the representative compounds.
(§2) Of the three branches of the sciatic nerve, the tibial and common peroneal nerves of the mice (C57BL/6, male, 25-30 g, Harlan) were cut and ligated, leaving the sural nerve intact. Pre-surgery baselines (100%) of the thermal and mechanical pain thresholds of the ipsilateral hind paws were measured using the Hargreaves thermal stimulator (Hargreaves et al., 1988) and von Frey hair monofilaments (up-down method, Chaplan et al., 1994), respectively. Mice underwent the SNI surgery on their left hind leg. Two weeks post-surgery, the thermal thresholds of each mouse were reassessed.
(§3) EXAMPLE-11, 14, 38, 62, or 113 (FIGS. 1A and B) and EXAMPLE-12, 16, 19, 39, or 44 (FIGS. 2A and B) were administered at 30 mg/kg (0.2 mL I.P.) in a vehicle (pure DMSO to dissolve the powder first and then add 0.5% Hydroxyl Propyl Cellulose, HPC, to contain 2% DMSO in injection solution). All drug solutions used the same vehicle, unless specified otherwise.

[3] = test system: SNI mice; experiment: Spared nerve injury (SNI) mice, von Frey monofilament test; format: in vivo, mouse; settings: 30 mg/kg, 0.2 mL I.P.
Description: FIG. 1B. Mechanical pain threshold assessment (using von Frey monofilament test) of the same cohort of SNI mice's left hindpaws.
as §1, §2, §3

[4] = test system: CFA mice; experiment: Complete Freund's Adjuvant (CFA)-induced inflammatory pain in mice, von Frey test; format: in vivo, mouse
Procedure: FIG. 7. Effects of EXAMPLE-96, 107 or 115 (each 30 mg/kg, I.P.) or gabapentin (as a benchmark, 100 mg/kg, I.P) on Complete Freund's Adjuvant (CFA)-induced inflammation in male, mice (C57BL/6, ˜2 months old; n=8 mice per group). Mechanical pain threshold assessment of CFA mice's left hindpaws were measured using von Frey monofilament test at 0.5, 1, 2, 4, and 6 hours after treatment.
Because knockout or antisense knockdown of the Cav3.2 isoform produces analgesic effects in neuropathic pain as well as in inflammatory pain in mice (Choi et al., 2007), we used the Complete Freund adjuvant (CFA)-inflammatory pain in mice to investigate the drug effects. EXAMPLE-96, -115, and -107 (each at 30 mg/kg, I.P.) and a reference gabapentin (100 mg/kg, I.P.) was individually administered to mice that had CFA-induced inflammation on their left hindpaws.

[5] = test system: SNI rats; experiment: Spared nerve injury (SNI) rats, Hargreaves thermal test; format: in vivo, rat; settings: 30 mg/kg, 1 mL I.P.
Procedure: FIG. 3A. Spared Nerve Injury (SNI) rats' left hindpaw withdrawal latencies in response to thermal stimulation (Hargreaves test). Each SNI rat received either EXAMPLE-106, 107, or 115, (each 30 mg/kg, 1 mL I.P.), or vehicle (2% DMSO in 0.5% HPC). Sham rats also received vehicle I.P. injections. […] 40 seconds were cutoff in order to prevent tissue damage. The sham-vehicle serves as a positive control (n=8 per treatment group).
(§4) In additional examples shown here, the analgesic effects were further evaluated in another rat species. Baseline thermal and mechanical thresholds of male rats (Sprague-Dawley rats, 275 g-325 g, Harlan) were taken prior to surgery; baseline thresholds were measured on the rats' left hindpaws. Thirty-two rats underwent the SNI surgery on their left hind leg; 8 rats underwent surgery without injury of the nerves as a sham group. Two weeks post-surgery, the thermal thresholds of each rat were reassessed. […] Each rat received either EXAMPLE-106, -107, -115 (each 30 mg/kg, 1 mL I.P.), or vehicle (2% DMSO in 0.5% HPC). Thermal and mechanical thresholds were measured at 1, 2, 3, 4, 5, 6, 7, and 8 hours post-treatment/dosing. […] The drug actions started around 1 hour post-injection and peaked between 2 and 3 hours, and the drug effects gradually declined to pre-treatment levels over 6-7 hours (FIGS. 3A and B).

[6] = test system: SNI rats; experiment: Spared nerve injury (SNI) rats, von Frey monofilament test; format: in vivo, rat; settings: for start of drug action post-injection: 30 mg/kg I.P., thermal and mechanical thresholds; for mechanical pain threshold of left hindpaw (allodynia): 30 mg/kg, 1 mL I.P.
Procedure: FIG. 3B. Mechanical pain threshold assessment (von Frey monofilament test) of SNI rats' left hindpaws. Each SNI rat received either EXAMPLE-106, -107, and -115 (each 30 mg/kg, 1 mL I.P.), or vehicle (1 mL I.P. 2% DMSO in 0.5% HPC). Sham rats also received vehicle I.P. injections. […] The sham-vehicle serves as a positive control. Thermal and mechanical pain responses were measured once every hour for 8 consecutive hours after I.P. treatment (n=8 rats per treatment group).
FIG. 4. Mechanical pain threshold assessment (von Frey monofilament test) of left hindpaws in another cohort of SNI rats. Each SNI rat received either EXAMPLE-128, -130, -132, or Z944 (as a reference compound, each 10 mg/kg, 2 mL oral gavage, P.O.). […] Mechanical pain responses were measured at pre-dosing, 1, 2, 4, and 6 hours post-treatment using von Frey monofilament test (n=8 rats per group).
as §4
In another cohort of SNI rats ((n=8 per group)), mechanical thresholds were measured at pre-dosing, 1, 2, 4, and 6 hours post-treatment using von Frey monofilament test.

T1 sequence (O95180 whole entry): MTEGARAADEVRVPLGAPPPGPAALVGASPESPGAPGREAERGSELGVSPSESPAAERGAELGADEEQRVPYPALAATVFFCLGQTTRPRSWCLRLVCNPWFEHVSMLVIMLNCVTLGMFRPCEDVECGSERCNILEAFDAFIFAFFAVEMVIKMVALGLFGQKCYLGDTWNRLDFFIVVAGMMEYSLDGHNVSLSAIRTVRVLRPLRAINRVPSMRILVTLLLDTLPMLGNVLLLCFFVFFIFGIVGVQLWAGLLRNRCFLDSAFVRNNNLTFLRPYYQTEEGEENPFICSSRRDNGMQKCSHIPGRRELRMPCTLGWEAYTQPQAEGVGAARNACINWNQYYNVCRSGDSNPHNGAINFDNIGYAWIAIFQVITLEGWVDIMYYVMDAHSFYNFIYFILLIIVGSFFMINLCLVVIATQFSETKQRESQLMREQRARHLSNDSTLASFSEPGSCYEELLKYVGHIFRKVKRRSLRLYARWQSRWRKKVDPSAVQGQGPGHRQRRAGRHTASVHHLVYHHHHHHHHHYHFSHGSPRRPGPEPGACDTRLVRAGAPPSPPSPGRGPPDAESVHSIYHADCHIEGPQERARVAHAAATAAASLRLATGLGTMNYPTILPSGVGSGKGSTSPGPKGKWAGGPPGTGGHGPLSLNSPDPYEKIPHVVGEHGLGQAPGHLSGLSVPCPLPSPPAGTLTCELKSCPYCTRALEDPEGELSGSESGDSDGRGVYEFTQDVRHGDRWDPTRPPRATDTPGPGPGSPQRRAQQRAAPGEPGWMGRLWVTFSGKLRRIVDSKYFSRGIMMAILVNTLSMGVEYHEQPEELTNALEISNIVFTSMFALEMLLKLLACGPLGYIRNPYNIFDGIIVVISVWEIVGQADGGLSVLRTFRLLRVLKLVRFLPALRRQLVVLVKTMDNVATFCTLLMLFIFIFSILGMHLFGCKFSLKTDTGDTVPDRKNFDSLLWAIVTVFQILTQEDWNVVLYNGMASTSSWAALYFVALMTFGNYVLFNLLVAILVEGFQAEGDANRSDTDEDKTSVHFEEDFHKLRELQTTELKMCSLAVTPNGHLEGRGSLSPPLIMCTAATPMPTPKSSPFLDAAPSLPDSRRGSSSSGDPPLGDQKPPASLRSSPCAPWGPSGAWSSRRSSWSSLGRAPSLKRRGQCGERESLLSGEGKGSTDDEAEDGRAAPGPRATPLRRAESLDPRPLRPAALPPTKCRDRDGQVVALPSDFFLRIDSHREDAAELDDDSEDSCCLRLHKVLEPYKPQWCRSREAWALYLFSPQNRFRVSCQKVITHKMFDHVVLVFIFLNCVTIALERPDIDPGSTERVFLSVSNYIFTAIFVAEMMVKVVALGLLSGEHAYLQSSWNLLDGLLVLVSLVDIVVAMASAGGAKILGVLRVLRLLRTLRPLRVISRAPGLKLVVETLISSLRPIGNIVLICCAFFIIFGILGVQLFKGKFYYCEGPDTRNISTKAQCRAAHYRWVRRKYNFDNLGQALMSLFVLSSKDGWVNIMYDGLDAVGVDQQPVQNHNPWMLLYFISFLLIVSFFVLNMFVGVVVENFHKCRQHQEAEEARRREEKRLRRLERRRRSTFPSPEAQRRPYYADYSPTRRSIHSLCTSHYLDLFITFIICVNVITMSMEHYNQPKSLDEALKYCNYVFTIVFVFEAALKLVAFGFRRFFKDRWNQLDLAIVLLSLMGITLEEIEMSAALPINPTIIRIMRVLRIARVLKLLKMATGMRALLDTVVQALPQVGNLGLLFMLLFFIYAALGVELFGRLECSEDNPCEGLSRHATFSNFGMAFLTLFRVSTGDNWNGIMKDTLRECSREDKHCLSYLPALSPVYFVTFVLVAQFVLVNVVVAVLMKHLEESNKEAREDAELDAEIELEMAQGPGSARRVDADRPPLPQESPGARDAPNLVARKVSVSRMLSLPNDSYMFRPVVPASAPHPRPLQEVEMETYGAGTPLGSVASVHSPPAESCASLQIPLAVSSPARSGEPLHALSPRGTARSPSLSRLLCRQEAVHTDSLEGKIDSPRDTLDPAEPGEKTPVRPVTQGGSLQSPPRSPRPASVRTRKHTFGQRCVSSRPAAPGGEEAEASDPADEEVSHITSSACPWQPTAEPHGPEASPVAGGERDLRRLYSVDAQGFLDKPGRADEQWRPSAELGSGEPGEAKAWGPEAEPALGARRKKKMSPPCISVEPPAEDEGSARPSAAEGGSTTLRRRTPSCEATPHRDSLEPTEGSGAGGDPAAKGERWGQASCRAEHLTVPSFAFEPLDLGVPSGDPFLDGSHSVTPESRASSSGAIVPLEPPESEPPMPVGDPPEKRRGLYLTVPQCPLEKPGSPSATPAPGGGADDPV

SMILES	pIC50 [1]	left hindpaw withdrawal latency to thermal stimulation (hyperalgesia) [2]	mechanical pain threshold of left hindpaw (allodynia) [3]	further results
CC(C)CN1CCC2(CC1)CC2NC(=O)c1cc(Cl)cc(Cl)c1 (stereo not shown) [Example 11, 3,5-Dichloro-N-(6-isobutyl-6-azaspiro[2.5]octan-1-yl)benzamide]	6.38	produced analgesic effects; also recorded: reduced hyperalgesia	produced analgesic effects; also recorded: reduced allodynia	
CC(C)(C)CCN1CCC2(CC1)CC2NC(=O)c1cc(Cl)cc(Cl)c1 (stereo not shown) [Example 12, 3,5-Dichloro-N-(6-(3,3-dimethylbutyl)-6-azaspiro[2.5]octan-1-yl)benzamide]	7.30	produced analgesic effects; also recorded: reduced hyperalgesia	produced analgesic effects; also recorded: reduced allodynia	
CC(C)(C)NC(=O)CN1CCC2(CC1)CC2NC(=O)c1cc(Cl)cc(Cl)c1 (stereo not shown) [Example 14, N-(6-(2-(tert-Butylamino)-2-oxoethyl)-6-azaspiro[2.5]octan-1-yl)-3,5-dichlorobenzamide]	7.52	produced analgesic effects; also recorded: reduced hyperalgesia	produced analgesic effects; also recorded: reduced allodynia	
CC(C)(C)NC(=O)CN1CCC2(CC1)CC2NC(=O)c1cc(C(F)(F)F)cc(C(F)(F)F)c1 (stereo not shown) [Example 16, N-(6-(2-(tert-Butylamino)-2-oxoethyl)-6-azaspiro[2.5]octan-1-yl)-3,5-bis(trifluoromethyl)benzamide]	6.92	produced analgesic effects; also recorded: reduced hyperalgesia	produced analgesic effects; also recorded: reduced allodynia	
CC(C)(C)CCN1CCC2(CC1)CC2NC(=O)c1cc(C(F)(F)F)cc(C(F)(F)F)c1 (stereo not shown) [Example 19, N-(6-(3,3-Dimethylbutyl)-6-azaspiro[2.5]octan-1-yl)-3,5-bis(trifluoromethyl)benzamide]	7.52	produced analgesic effects; also recorded: reduced hyperalgesia	produced analgesic effects; also recorded: reduced allodynia	
CC(C)(C)OCCN1CCC2(CC1)CC2NC(=O)c1cc(Cl)cc(Cl)c1 (stereo not shown) [Example 38, N-(6-(2-(tert-Butoxy)ethyl)-6-azaspiro[2.5]octan-1-yl)-3,5-dichlorobenzamide]	7.40	produced analgesic effects; also recorded: reduced hyperalgesia	produced analgesic effects; also recorded: reduced allodynia	
O=C(NC1CC12CCN(CC(c1ccccc1)c1ccccc1)CC2)c1cc(Cl)cc(Cl)c1 (stereo not shown) [Example 39, 3,5-Dichloro-N-(6-(2,2-diphenylethyl)-6-azaspiro[2.5]octan-1-yl)benzamide]	7.22	produced analgesic effects; also recorded: reduced hyperalgesia	produced analgesic effects; also recorded: reduced allodynia	
COc1ccc(CCN2CCC3(CC2)CC3NC(=O)c2cc(Cl)cc(Cl)c2)cc1 (stereo not shown) [Example 44, 3,5-Dichloro-N-(6-(4-methoxyphenethyl)-6-azaspiro[2.5]octan-1-yl)benzamide]	7.00	produced analgesic effects; also recorded: reduced hyperalgesia	produced analgesic effects; also recorded: reduced allodynia	
O=C(NC1CCC12CCN(CCc1ccccc1)CC2)c1ccccc1 (stereo not shown) [Example 62]		produced analgesic effects; also recorded: reduced hyperalgesia	produced analgesic effects; also recorded: reduced allodynia	inhibition at 1 µM [1]: 68%
CC(C)(C)NC(=O)CN1CCC(CNC(=O)c2ccccc2)CC1 [Example 96, N-((1-(2-(tert-Butylamino)-2-oxoethyl)piperidin-4-yl)methyl)benzamide]				inhibition at 1 µM [1]: 40%; mechanical pain threshold, CFA-induced inflammation ([4]; 30 mg/kg I.P.): showed an analgesic effect in mechanical pain
O=C(CN1CCC(CNCC(=O)c2ccc[nH]2)CC1)Nc1ccccc1 [Example 106, 2-(4-(((2-Oxo-2-(1H-pyrrol-2-yl)ethyl)amino)methyl)piperidin-1-yl)-N-phenylacetamide]				left hindpaw withdrawal latency to thermal stimulation (hyperalgesia) [5]: elevated both thermal and mechanical thresholds; also recorded: reduced hyperalgesia; start of drug action post-injection [6]: around 1 hour; mechanical pain threshold of left hindpaw (allodynia) [6]: elevated both thermal and mechanical thresholds; also recorded: reduced allodynia
CC1(CNC(=O)c2ccccc2)CCN(CC(=O)NC(C)(C)C)CC1 [Example 107, N-((1-(2-(tert-butylamino)-2-oxoethyl)-4-methylpiperidin-4-yl)methyl)benzamide]				inhibition at 1 µM [1]: 21%; left hindpaw withdrawal latency to thermal stimulation (hyperalgesia) [5]: elevated both thermal and mechanical thresholds; also recorded: reduced hyperalgesia; start of drug action post-injection [6]: around 1 hour; mechanical pain threshold of left hindpaw (allodynia) [6]: elevated both thermal and mechanical thresholds; also recorded: reduced allodynia; mechanical pain threshold, CFA-induced inflammation ([4]; 30 mg/kg I.P.): showed an analgesic effect in mechanical pain
CC(C)(C)NC(=O)CN1CCC2(CC[C@H]2NC(=O)c2cc(Cl)cc(Cl)c2)CC1 [Example 113, (R)—N-(7-(2-(tert-Butylamino)-2-oxoethyl)-7-azaspiro[3.5]nonan-1-yl)-3,5-dichlorobenzamide]	6.19	produced analgesic effects; also recorded: reduced hyperalgesia	produced analgesic effects; also recorded: reduced allodynia	
NCC1(CC(=O)O)CCCCC1 [gabapentin, reference compound]		reduced hyperalgesia	reduced allodynia	mechanical pain threshold, CFA-induced inflammation ([4]; 100 mg/kg I.P.): showed an analgesic effect in mechanical pain
